Source: patent US11858970B1, “Chili pepper seed isolated oligopeptide FTLE and application thereof in preventing or treating cancer” (CHINA AGRICULTURAL UNIVERSITY, priority 2022, dated 2024)

Test system: HepG2 cells
Test: HepG2 cell proliferation measured by MTT method
Type: cell-based
Conditions: peptide at 0.1, 0.3 and 0.6 mM, 24 hours, compared with other synthetic peptides
Procedure: Chemical systhesis was conducted in accordance with the peptide sequences obtained by mass spectrometry identification analysis of Example 1 to obtain synthetic peptides. The effect of each peptide on HepG2 cell proliferation was studied, and the specific steps were as follows:
1) HepG2 cell culture: hepG2 cells were obtained from the ATCC cell bank and were cultured in a DMEM medium containing 10% FBS at 37° C. in a 5% CO2 cell incubator. Cells were cultured in a 25 cm ^2 flask, passaged when cells were grown to a density of 70% to 90%, and seeded in a 96-well plate.
2) Peptide fragment treatment: after 24 hours of cell culture in the 96-well plate, the original DMEM medium was aspirated from the wells. DMEM containing peptide fragments at concentrations of 0.1, 0.3, and 0.6 mM were added to each well to continue culturing for 24 hours.
3) Cell proliferation rate measured by MTT method: MTT at a concentration of 5 mg/mL was added to a 96-well plate in 20 μL per well. After incubation for 4 hours, the liquid was aspirated from each well. 150 μL DMSO was added to each well. The absorbance was measured after reacting for 20 min.

## Phe-Thr-Leu-Glu (FTLE) [oligopeptide identified in chili pepper seed zymolyte, chemically synthesized for testing]
  HepG2 cell inhibition rate: better HepG2 cell inhibition rate than other oligopeptides
